The values that follow come from paper PMC7830758, “Revisiting the Rate-Limiting Step of the ANS–Protein Binding at the Protein Surface and Inside the Hydrophobic Cavity” (Molecules, 2021).

The target of experiment [1] is T1, bovine serum albumin (BSA) (Bos taurus, UniProt P02769).
T1 construct: gene ALB
The experiment in a line: ANS fluorescence titrated with protein, MCR-ALS scores, one-site fit. Conditions: read-out: K (converted). The class given is binding.

Another experiment addresses T2, lysozyme (Gallus gallus, UniProt P00698).
T2 construct: gene LYZ
Described as above. In kind it is binding. Conditions: read-out: K (converted).

T1 sequence (P02769 25-607): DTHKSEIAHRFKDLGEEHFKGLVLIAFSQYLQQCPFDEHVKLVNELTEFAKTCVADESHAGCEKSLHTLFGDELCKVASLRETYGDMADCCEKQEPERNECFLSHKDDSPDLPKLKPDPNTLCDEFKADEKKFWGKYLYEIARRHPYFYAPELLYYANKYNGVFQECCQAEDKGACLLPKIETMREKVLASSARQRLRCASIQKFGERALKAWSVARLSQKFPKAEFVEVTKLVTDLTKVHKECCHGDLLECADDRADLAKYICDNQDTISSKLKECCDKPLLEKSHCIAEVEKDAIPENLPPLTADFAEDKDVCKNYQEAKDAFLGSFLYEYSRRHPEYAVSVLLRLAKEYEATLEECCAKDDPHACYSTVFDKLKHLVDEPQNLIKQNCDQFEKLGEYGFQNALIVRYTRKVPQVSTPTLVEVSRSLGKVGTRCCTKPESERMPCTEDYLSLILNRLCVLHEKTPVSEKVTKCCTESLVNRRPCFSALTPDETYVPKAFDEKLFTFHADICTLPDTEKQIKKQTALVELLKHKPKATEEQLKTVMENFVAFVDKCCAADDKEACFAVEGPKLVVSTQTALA
T2 sequence (P00698 19-147): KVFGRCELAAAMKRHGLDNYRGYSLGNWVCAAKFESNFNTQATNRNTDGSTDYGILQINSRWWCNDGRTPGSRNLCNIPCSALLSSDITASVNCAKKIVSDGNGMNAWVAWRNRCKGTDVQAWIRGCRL

As for `O=S(=O)(O)c1cccc2cccc(Nc3ccccc3)c12` [8-Anilino-1-naphthalenesulfonic acid], the Kd in experiment [1] was 1.06 µM; at lysozyme it was 172 µM.
